Reference: ChEMBL document CHEMBL3745623, “Polyphenols isolated from leaves of Vitis thunbergii var. taiwaniana regulate APP related pathway” (Bioorg Med Chem Lett, 2016)
Active and inactive are the calls of the source. No cut-off for these calls is given here.

Legend:
N2a [1] = assay: Inhibition of gamma-secretase in mouse N2A cells transfected with NotchdeltaE assessed as reduction in Notch intracellular domain level at 8 uM after 10 hrs by densitometry analysis; assay type: cell-based
N2a [2] = assay: Cytotoxicity against mouse N2A cells expressing human APP695 assessed as reduction in cell viability at 16 to 100 uM after 10 hrs by CCK-8 assay; assay type: cell-based
N2a [3] = assay: Effect on mature ADAM10 level in mouse N2A cells expressing human APP695 at 8 uM after 10 hrs by Western blot analysis; assay type: functional, cell-based
N2a [4] = assay: Effect on immature ADAM10 level in mouse N2A cells expressing human APP695 at 8 uM after 10 hrs by Western blot analysis; assay type: functional, cell-based
[5] = target: Disintegrin and metalloproteinase domain-containing protein 17 (Homo sapiens) (UniProt P78536); assay: Activation of TACE in human SH-SY5Y cells at 8 uM after 10 hrs by fluorescence assay; assay type: cell-based
Chain of Disintegrin and metalloproteinase domain-containing protein 17 (Homo sapiens) (P78536 whole entry, the tested form may be a part): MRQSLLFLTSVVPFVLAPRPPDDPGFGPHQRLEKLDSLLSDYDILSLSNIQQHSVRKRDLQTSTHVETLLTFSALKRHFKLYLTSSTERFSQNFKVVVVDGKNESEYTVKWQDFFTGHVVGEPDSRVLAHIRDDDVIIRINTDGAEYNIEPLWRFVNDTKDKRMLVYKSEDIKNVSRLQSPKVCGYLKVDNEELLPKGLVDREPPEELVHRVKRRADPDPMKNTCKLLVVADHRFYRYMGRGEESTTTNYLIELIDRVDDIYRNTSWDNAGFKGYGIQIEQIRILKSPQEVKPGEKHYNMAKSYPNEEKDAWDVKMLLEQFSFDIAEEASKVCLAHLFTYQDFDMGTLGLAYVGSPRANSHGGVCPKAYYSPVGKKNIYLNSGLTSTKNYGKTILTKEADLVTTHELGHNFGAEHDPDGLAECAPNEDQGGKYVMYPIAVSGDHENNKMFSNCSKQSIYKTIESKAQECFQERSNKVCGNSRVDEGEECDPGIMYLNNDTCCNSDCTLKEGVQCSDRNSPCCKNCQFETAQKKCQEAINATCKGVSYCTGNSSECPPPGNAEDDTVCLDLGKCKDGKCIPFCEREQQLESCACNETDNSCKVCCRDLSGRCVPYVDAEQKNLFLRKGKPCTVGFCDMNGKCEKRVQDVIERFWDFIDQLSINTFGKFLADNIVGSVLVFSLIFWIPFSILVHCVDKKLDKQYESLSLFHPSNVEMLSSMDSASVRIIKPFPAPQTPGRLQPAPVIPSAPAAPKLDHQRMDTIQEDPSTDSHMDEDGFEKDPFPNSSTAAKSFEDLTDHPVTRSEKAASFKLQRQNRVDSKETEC

N2a [6] = assay: Upregulation of soluble APP alpha protein level in mouse N2A cells expressing human APP695 at 8 uM after 10 hrs by Western blot analysis; assay type: functional, cell-based
[7] = target: Beta-secretase 1 (Homo sapiens) (UniProt P56817); assay: Inhibition of BACE1 in human SH-SY5Y cells at 8 uM after 10 hrs by fluorescence plate reader analysis; assay type: cell-based
Chain of Beta-secretase 1 (Homo sapiens) (P56817 whole entry): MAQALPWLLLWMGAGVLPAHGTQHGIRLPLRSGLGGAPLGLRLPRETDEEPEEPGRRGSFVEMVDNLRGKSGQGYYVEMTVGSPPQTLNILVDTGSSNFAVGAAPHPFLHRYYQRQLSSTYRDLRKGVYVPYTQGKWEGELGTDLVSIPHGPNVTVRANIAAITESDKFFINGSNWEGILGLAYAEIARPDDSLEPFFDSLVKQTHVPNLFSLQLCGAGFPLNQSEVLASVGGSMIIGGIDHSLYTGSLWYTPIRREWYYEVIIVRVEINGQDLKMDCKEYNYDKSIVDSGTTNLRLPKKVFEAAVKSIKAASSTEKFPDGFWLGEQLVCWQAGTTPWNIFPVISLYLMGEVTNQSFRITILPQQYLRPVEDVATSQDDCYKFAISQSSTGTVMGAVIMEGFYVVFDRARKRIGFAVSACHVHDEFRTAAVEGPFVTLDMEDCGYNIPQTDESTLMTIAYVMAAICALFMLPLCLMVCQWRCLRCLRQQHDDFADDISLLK

N2a [8] = assay: Effect on full length APP level in mouse N2A cells expressing human APP695 at 8 uM after 10 hrs by Western blot analysis; assay type: functional, cell-based
N2a [9] = assay: Decrease in amyloid beta40 level in mouse N2A cells expressing human APP695 at 10 uM after 10 hrs by sandwich ELISA; assay type: functional, cell-based
N2a [10] = assay: Decrease in amyloid beta42 level in mouse N2A cells expressing human APP695 after 10 hrs by sandwich ELISA; assay type: functional, cell-based
N2a [11] = assay: Downregulation of N-terminal fragment of presenilin1 level in mouse N2A cells at 8 uM after 10 hrs by Western blot analysis; assay type: functional, cell-based
N2a [12] = assay: Cytotoxicity against mouse N2A cells expressing human APP695 assessed as reduction in cell viability up to 16 uM after 10 hrs by CCK-8 assay; assay type: cell-based
N2a [13] = assay: Effect on ADAM17 level in mouse N2A cells expressing human APP695 at 8 uM after 10 hrs by Western blot analysis; assay type: functional, cell-based
N2a [14] = assay: Decrease in amyloid beta40 level in mouse N2A cells expressing human APP695 after 10 hrs by sandwich ELISA; assay type: functional, cell-based
N2a [15] = assay: Effect on BACE1 level in mouse N2A cells expressing human APP695 at 8 uM after 10 hrs by Western blot analysis; assay type: functional, cell-based
[16] = target: Beta-secretase 1 (Mus musculus) (UniProt P56818); assay: Inhibition of BACE1 in mouse N2A cells at 8 uM after 10 hrs by fluorescence plate reader analysis; assay type: cell-based
Chain of Beta-secretase 1 (Mus musculus) (P56818 whole entry): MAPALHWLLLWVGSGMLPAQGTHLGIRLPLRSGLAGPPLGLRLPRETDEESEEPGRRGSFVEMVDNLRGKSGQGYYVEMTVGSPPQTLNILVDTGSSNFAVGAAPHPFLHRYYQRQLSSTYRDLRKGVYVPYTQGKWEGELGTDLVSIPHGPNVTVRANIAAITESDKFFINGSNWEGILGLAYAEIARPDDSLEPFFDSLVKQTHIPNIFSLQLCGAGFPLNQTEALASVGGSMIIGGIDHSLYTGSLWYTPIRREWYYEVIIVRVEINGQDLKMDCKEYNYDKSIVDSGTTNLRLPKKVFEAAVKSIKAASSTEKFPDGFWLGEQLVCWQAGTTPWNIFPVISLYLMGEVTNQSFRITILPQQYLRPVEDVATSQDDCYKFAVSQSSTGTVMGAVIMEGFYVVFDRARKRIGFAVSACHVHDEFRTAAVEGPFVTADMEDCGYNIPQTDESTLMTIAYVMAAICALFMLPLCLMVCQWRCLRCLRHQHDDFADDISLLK

[17] = target: Beta-secretase 1 (Mus musculus) (UniProt P56818); assay: Inhibition of BACE1 in mouse N2A cells expressing human APP695 assessed as decrease in soluble APP beta protein level at 8 uM after 10 hrs by Western blot analysis; assay type: cell-based
N2a [18] = assay: Cytotoxicity against mouse N2A cells expressing human APP695 assessed as reduction in cell viability up to 8 uM after 10 hrs by CCK-8 assay; assay type: cell-based
N2a [19] = assay: Cytotoxicity against mouse N2A cells expressing human APP695 assessed as reduction in cell viability at 8 to 100 uM after 10 hrs by CCK-8 assay; assay type: cell-based
N2a [20] = assay: Upregulation of soluble APP alpha protein level in mouse N2A cells expressing human APP695 at 10 uM after 10 hrs by Western blot analysis; assay type: functional, cell-based
[21] = target: Beta-secretase 1 (Mus musculus) (UniProt P56818); assay: Inhibition of BACE1 in mouse N2A cells expressing human APP695 assessed as reduction in amyloid beta40 level after 10 hrs by sandwich ELISA; assay type: cell-based
[22] = target: Beta-secretase 1 (Mus musculus) (UniProt P56818); assay: Inhibition of BACE1 in mouse N2A cells expressing human APP695 assessed as reduction in amyloid beta42 level after 10 hrs by sandwich ELISA; assay type: cell-based
[23] = target: Beta-secretase 1 (Mus musculus) (UniProt P56818); assay: Inhibition of BACE1 in mouse N2A cells expressing human APP695 assessed as reduction in amyloid beta40 level at 10 uM after 10 hrs by sandwich ELISA; assay type: cell-based

In the case of `Oc1ccc([C@@H]2c3c(O)cc(O)cc3[C@@H]3c4c(cc(O)c5c4[C@H]2[C@@H](c2cc(O)cc(O)c2)[C@@H]5c2ccc(O)cc2)O[C@H]3c2ccc(O)cc2)cc1`, the inhibition (N2a [1]) is reported as “inactive”, the Activity (N2a [2]) is reported as “Dose-dependent effect” and the Activity (N2a [3]) is reported as “inactive”. For the same molecule, the Activity (N2a [4]) was “inactive”, the Activity [5] was “inactive” and the Activity (N2a [6]) was “Active”. The inhibition [7] was “Active”, the Activity (N2a [8]) was “inactive” and the Activity (N2a [9]) was “Active”. The Activity (N2a [10]) was “Dose-dependent effect”, the Activity (N2a [11]) was “inactive” and the Activity (N2a [12]) was “Non-toxic”. The Activity (N2a [13]) was “inactive”, the Activity (N2a [14]) was “Dose-dependent effect” and the Activity (N2a [15]) was “inactive”. The inhibition [16] was “Active” and the inhibition [17] was “inactive”.

`Oc1ccc([C@H]2c3c(O)cc(O)cc3[C@H]3c4c(cc(O)cc4[C@H]4[C@H](c5ccc(O)cc5)c5cc(O)cc(O)c5[C@H]24)O[C@@H]3c2ccc(O)cc2)cc1` was tested, and the inhibition (N2a [1]) was “inactive”, the Activity (N2a [3]) was “inactive” and the Activity (N2a [4]) was “inactive”. The Activity [5] was “Active”, the Activity (N2a [6]) was “Active” and the inhibition [7] was “Active”. The Activity (N2a [18]) was “Non-toxic”, the Activity (N2a [8]) was “inactive” and the Activity (N2a [9]) was “Active”. The Activity (N2a [10]) was “Dose-dependent effect”, the Activity (N2a [19]) was “Dose-dependent effect” and the Activity (N2a [11]) was “inactive”. The Activity (N2a [13]) was “inactive”, the Activity (N2a [14]) was “Dose-dependent effect” and the Activity (N2a [15]) was “inactive”. The inhibition [16] was “inactive” and the inhibition [17] was “inactive”.

With `C[C@@H](NC(=O)c1cc(C(=O)N[C@@H](Cc2ccccc2)[C@H](O)CNC2CC2)cc(N(C)S(C)(=O)=O)c1)c1ccccc1` the Activity (N2a [20]) was “Active”.

For `Oc1ccc([C@@H]2c3c(O)cc4c5c3[C@@H]([C@@H](c3ccc(O)cc3)c3c(O)cc(O)cc3[C@@H]5[C@@H](c3ccc(O)cc3)O4)[C@H]2c2cc(O)cc(O)c2)cc1` [AMPELOPSIN C], the inhibition (N2a [1]) was “inactive”, the Activity (N2a [3]) was “inactive” and the Activity (N2a [4]) was “inactive”. The Activity [5] was “inactive”, the inhibition [21] was “Dose-dependent effect” and the Activity (N2a [6]) was “Active”. For the same molecule, the inhibition [7] was “Active”, the Activity (N2a [18]) was “Non-toxic” and the inhibition [22] was “Dose-dependent effect”. For the same molecule, the Activity (N2a [8]) was “inactive”, the inhibition [23] was “Active” and the Activity (N2a [19]) was “Dose-dependent effect”. For the same molecule, the Activity (N2a [11]) was “inactive”, the Activity (N2a [13]) was “inactive” and the Activity (N2a [15]) was “inactive”. For the same molecule, the inhibition [16] was “Active” and the inhibition [17] was “Active”.
